Data set [1] concerns the target T1, Endothelin receptor type B (Rattus norvegicus, UniProt P21451).
T1 sequence (P21451 whole entry): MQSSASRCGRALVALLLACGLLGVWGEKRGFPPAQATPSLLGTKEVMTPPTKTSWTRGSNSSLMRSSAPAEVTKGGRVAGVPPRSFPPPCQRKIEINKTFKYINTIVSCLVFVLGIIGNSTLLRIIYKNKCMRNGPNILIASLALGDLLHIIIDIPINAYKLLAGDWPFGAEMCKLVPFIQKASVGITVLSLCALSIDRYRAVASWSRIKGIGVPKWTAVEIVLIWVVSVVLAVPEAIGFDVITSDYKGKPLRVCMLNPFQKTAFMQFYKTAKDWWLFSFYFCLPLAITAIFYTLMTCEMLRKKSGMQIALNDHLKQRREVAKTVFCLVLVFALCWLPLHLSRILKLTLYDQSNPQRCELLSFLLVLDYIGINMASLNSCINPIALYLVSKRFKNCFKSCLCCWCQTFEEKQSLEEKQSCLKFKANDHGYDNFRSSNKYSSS
The data set is described as follows: In vitro inhibition of [125-I] labelled ET-1 endothelin binding to Endothelin B receptor in rat cerebellum. The format is tissue-based.

Data set [2] deals with T2, Endothelin-1 receptor (Rattus norvegicus, UniProt P26684).
T2 sequence (P26684 whole entry): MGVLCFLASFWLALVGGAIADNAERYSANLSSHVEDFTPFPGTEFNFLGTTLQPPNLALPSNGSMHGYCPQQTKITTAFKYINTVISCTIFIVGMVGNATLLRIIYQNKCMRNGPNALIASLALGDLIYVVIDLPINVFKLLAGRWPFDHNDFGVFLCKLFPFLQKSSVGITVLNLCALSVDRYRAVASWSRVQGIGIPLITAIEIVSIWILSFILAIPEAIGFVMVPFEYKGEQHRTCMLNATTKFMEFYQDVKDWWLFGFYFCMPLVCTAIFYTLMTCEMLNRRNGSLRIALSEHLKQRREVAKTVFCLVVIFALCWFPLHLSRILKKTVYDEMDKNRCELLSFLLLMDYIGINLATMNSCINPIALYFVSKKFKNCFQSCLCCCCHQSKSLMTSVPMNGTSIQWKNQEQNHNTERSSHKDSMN
The data set is described as follows: In vitro inhibition of endothelin binding to endothelin A receptor in rat heart ventricles was measured using a 125-I labelled ET-1 competition assay.

The target in data set [3] is T2, Endothelin-1 receptor. The data set is described as follows: In vitro inhibition of endothelin binding to Endothelin A receptor in rat heart ventricles was measured using 125-I labelled ET-1 competition assay; No measurable affinity.
Data set [4] concerns the target T1, Endothelin receptor type B. The data set is described as follows: In vitro inhibition of endothelin binding to Endothelin B receptor in rat cerebellum was measured using 125-I labelled ET-1 competition assay; No measurable affinity. It counts as tissue-based.
Data set [5] in a line: pKa was determined in ethanol:water (1:1) system. It counts as physicochemical.

Take `COc1cccc(Cn2nc(-c3ccccc3)c(Cc3cc4c(cc3Cl)OCO4)c2C(=O)O)c1`: the IC50 came to 0.034 µM in data set [1] and 0.018 µM at Endothelin-1 receptor [2].

As for `COc1cccc(Cn2nc(C(F)(F)F)c(Cc3ccc4c(c3)OCO4)c2OCC(=O)O)c1`, the IC50 in data set [1] amounted to 2.2 µM; on Endothelin-1 receptor [2] it was 0.45 µM.

For the compound `COc1cccc(Cn2nc(-c3ccccc3)c(Cc3ccc4c(c3)OCO4)c2C(=O)O)c1`, the IC50 in data set [1] amounted to 0.04 µM; at Endothelin-1 receptor [2], 0.028 µM.

Take `COc1cccc(Cn2nc(C(F)(F)F)c(Cc3ccc4c(c3)OCO4)c2OCCO)c1`: the IC50 in data set [1] was over 25 µM; at Endothelin-1 receptor [2], 40 µM.

Take `CCOC(=O)COc1c(Cc2ccc3c(c2)OCO3)c(C(F)(F)F)nn1Cc1cccc(OC)c1`: the IC50 entry (on Endothelin-1 receptor [3]; in data set [4]) was “Not Active” in each case.

Turning to `COc1cccc(Cn2nc(C(F)(F)F)c(Cc3ccc4c(c3)OCO4)c2OC)c1`, the pKa in data set [5] is 6. Further, the IC50 result (at Endothelin-1 receptor [3]; in data set [4]) was “Not Active” in each case.

In the case of `COc1cccc(Cn2[nH]c(C(F)(F)F)c(Cc3ccc4c(c3)OCO4)c2=O)c1`, in data set [1], the IC50 stood at 11 µM.

On to `O=c1c(Cc2ccc3c(c2)OCO3)c(C(F)(F)F)[nH]n1Cc1ccccc1Cl`, for which the half-maximal inhibitory concentration (IC50) in data set [1] was 25 µM; at Endothelin-1 receptor [2], 3.8 µM.

Consider `COc1cccc(Cn2[nH]c(C(F)(F)F)c(Cc3cc(OC)c(OC)c(OC)c3)c2=O)c1`, for which the IC50 entry (at Endothelin-1 receptor [3]; in data set [4]) was “Not Active” each time.

On to `O=c1c(Cc2ccc3c(c2)OCO3)c(C(F)(F)F)[nH]n1Cc1ccc2c(c1)OCO2`, for which the half-maximal inhibitory concentration (IC50) is 17 µM in data set [1] and 5.6 µM on Endothelin-1 receptor [2].

Take `COc1cccc(Cn2[nH]c(C(F)(F)F)c(Cc3ccc(F)cc3)c2=O)c1`: the results for the IC50 result (in data set [4]; at Endothelin-1 receptor [2]) were “Not Active” and 40 µM, respectively.

As for `COc1cccc(Cn2[nH]c(C(F)(F)F)c(Cc3ccc(Cl)cc3)c2=O)c1`, the 50% inhibitory concentration (IC50) amounted to 22 µM in data set [1] and 4.3 µM on Endothelin-1 receptor [2].

With `COc1cccc(Cn2[nH]c(C(F)(F)F)c(Cc3cc4c(cc3Cl)OCO4)c2=O)c1`, the half-maximal inhibitory concentration (IC50) in data set [1] was found to be 2.4 µM; on Endothelin-1 receptor [2], 0.6 µM.

On to `O=c1c(Cc2ccc3c(c2)OCO3)c(C(F)(F)F)[nH]n1Cc1cccc(O)c1`, for which the half-inhibitory concentration (IC50) in data set [1] worked out at 36 µM; at Endothelin-1 receptor [2], 1.7 µM.

Turning to `COc1cccc(Cn2[nH]c(C(F)(F)C(F)(F)C(F)(F)F)c(Cc3ccc4c(c3)OCO4)c2=O)c1`, the IC50 in data set [1] is 1 µM; on Endothelin-1 receptor [2] it was 0.14 µM.

For the compound `COc1ccc(Cc2[nH]n(Cc3cccc(OC)c3)c(=O)c2Cc2ccc3c(c2)OCO3)cc1`, the half-inhibitory concentration (IC50) in data set [1] turned out to be 24 µM; at Endothelin-1 receptor [2], 7.5 µM.

For `COc1ccccc1Cn1[nH]c(C(F)(F)F)c(Cc2ccc3c(c2)OCO3)c1=O`, the figures for the concentration for half-maximal inhibition (IC50) (in data set [1]; on Endothelin-1 receptor [2]) were 33 µM and 1.8 µM, respectively.

With `COc1cccc(Cn2[nH]c(C(F)(F)F)c(Cc3ccc(OC)c(OC)c3)c2=O)c1`, the concentration for half-maximal inhibition (IC50) result (on Endothelin-1 receptor [3]; in data set [4]) was “Not Active” in each case.

As for `COc1cccc(Cn2[nH]c(-c3ccccc3)c(Cc3ccc4c(c3)OCO4)c2=O)c1`, the IC50 came to 3.2 µM in data set [1] and 0.42 µM at Endothelin-1 receptor [2].

Consider `COc1ccc(Cn2[nH]c(C(F)(F)F)c(Cc3ccc4c(c3)OCO4)c2=O)c(OCC(=O)O)c1`, for which the figures for the half-inhibitory concentration (IC50) (in data set [1]; on Endothelin-1 receptor [2]) were 12 µM and 3.8 µM, respectively.

Take `COc1cccc(Cn2[nH]c(C(F)(F)F)c(Cc3cc(Cl)c4c(c3)OCO4)c2=O)c1`: the IC50 came out at 5.4 µM in data set [1] and 1.3 µM at Endothelin-1 receptor [2].

In the case of `COc1ccc(Cc2c(C(F)(F)F)[nH]n(Cc3cccc(OC)c3)c2=O)cc1`, the 50% inhibitory concentration (IC50) came to 39 µM in data set [1] and 48 µM at Endothelin-1 receptor [2].

In the case of `COc1cccc(Cn2[nH]c(C(F)(F)C(F)(F)F)c(Cc3ccc4c(c3)OCO4)c2=O)c1`, the IC50 was 3.3 µM in data set [1] and 0.11 µM at Endothelin-1 receptor [2].

As to `COc1ccc(Cn2[nH]c(C(F)(F)F)c(Cc3ccc4c(c3)OCO4)c2=O)cc1`, the IC50 in data set [1] worked out at 9.2 µM; on Endothelin-1 receptor [2], 2.1 µM.

In the case of `O=C(O)COc1cccc(Cn2[nH]c(C(F)(F)F)c(Cc3ccc4c(c3)OCO4)c2=O)c1`, the IC50 was 29 µM in data set [1] and 3.5 µM at Endothelin-1 receptor [2].

For the compound `COc1cccc(Cn2[nH]c(C(F)(F)F)c(Cc3ccc(Cl)c(Cl)c3)c2=O)c1`, the IC50 in data set [1] is 8.4 µM; on Endothelin-1 receptor [2] it was 10 µM.

In the case of `O=c1c(Cc2ccc3c(c2)OCO3)c(C(F)(F)F)[nH]n1Cc1cccc(Cl)c1`, the IC50 in data set [1] was 14 µM; at Endothelin-1 receptor [2] it was 1.9 µM.

In the case of `COc1cccc(Cn2[nH]c(C(F)(F)F)c(Cc3ccccc3)c2=O)c1`, the results for the half-inhibitory concentration (IC50) entry (in data set [4]; on Endothelin-1 receptor [2]) were “Not Active” and 98 µM, respectively.

For the compound `O=c1c(Cc2ccc3c(c2)OCO3)c(C(F)(F)F)[nH]n1Cc1ccccc1`, the half-inhibitory concentration (IC50) worked out at 24 µM in data set [1] and 10 µM on Endothelin-1 receptor [2].

As for `COc1cccc(Cn2[nH]c(C)c(Cc3ccc4c(c3)OCO4)c2=O)c1`, the IC50 entry is “Not Active” in data set [4] and 20 µM at Endothelin-1 receptor [2].

For the compound `COc1cccc(Cn2[nH]c(-c3ccc([N+](=O)[O-])cc3)c(Cc3ccc4c(c3)OCO4)c2=O)c1`, the IC50 in data set [1] was 15 µM; at Endothelin-1 receptor [2], 3.1 µM.

`COc1cccc(Cn2nc(C(F)(F)F)c(Cc3ccc4c(c3)OCO4)c2OCCCC(=O)O)c1`: the IC50 entry in data set [4] was “Not Active”; on Endothelin-1 receptor [2], 64 µM.
